Reference: patent US9556153B1, “JAK1 inhibitors” (Eli Lilly and Company, priority 2015, dated 2017)

Test system: phosphorylation of STAT3 in the H1975 xenograft
Test: pSTAT3 Mouse IVTI (JAK1) Assay, H1975 xenograft
Type: in vivo
Conditions: single oral dose, two hours, n=1
Procedure: pSTAT3 Mouse IVTI (JAK1) Assay
The purpose of this assay is to measure the ability of test compounds to inhibit the phosphorylation of STAT3 (STAT3 activation) in the H1975 xenograft mouse model. Grow H1975 cells according to ATCC specifications at the lowest possible passage number available. Culture and maintain cells in RPMI-1640 supplemented with 10% FBS and incubated at 37° C. in 5% CO2. Harvest cells by standard techniques and mix with BD Biosciences basement membrane matrix (MATRIGEL®) to cell suspension to achieve a 1:1 cell/matrix ratio yielding an inoculation volume of 0.2 mL cell/matrix suspension containing 5e6 cells. […] Time course studies are a single dose administered at the TED70 determined from the dose response study.
Harvest and cut tumors to yield approximately 150-250 mm^3 size fragments and immediately drop into a 12×75 mm tube containing 1 mL of ice cold MSD Tris Lysis buffer (Meso Scale Discovery cat# R60TX-2) and 1×HALT (Thermo Scientific product #1861281). […] Cool plate to RT and measure absorbance at or near 562 nm on Molecular Devices Spectra Max. Protein concentrations for each sample are determined using SoftMax Pro 6.3 software program. After tumor samples are quantitated, freeze lysates at −80° C. in the 96 well polypropylene plate and assay at a later date. […]

Cc1cc(Nc2cc(O[C@H]3CC[C@@H](NC[C@@H](O)C(F)(F)F)CC3)cc3c2ncn3C)nn1C [Example 1, (2R)-3-{[cis-4-({4-[(1,5-Dimethyl-1H-pyrazol-3-yl)amino]-1-methyl-1H-benzimidazol-6-yl}oxy)cyclohexyl]amino}-1,1,1-trifluoropropan-2-ol]
TEC50 (plasma concentration to achieve 50% pSTAT3 inhibition): 11.1 μM | TED50 (dose necessary to achieve 50% pSTAT3 inhibition): 35 mg/kg
